Measurements as given in US20230118795A1, “ARYL OR HETEROARYL PYRIDONE OR PYRIMIDINE DERIVATIVE, PREPARATION METHOD AND USE THEREOF” (SUZHOU ZELGEN BIOPHARMACEUTICALS CO., LTD., priority 2020, published 2023).

Test system: NCI-H358 (KRAS^G12C mutation) cell
Assay: Cell assay of antiproliferative activity against NCI-H358 cell (Celltiter-Glo, 5 days)
Assay type: cell-based
Settings: 5 days incubation
Method: Cell Assay of Antiproliferative Activity of Compounds Against NCI-H358 (KRAS^G12C Mutation) Cell.
40 μL phosphate buffer was added to the outer wells of the 384 microplate, and 40 μL cell suspension to be tested was added to the other wells. Then the microplate was incubated in a carbon dioxide incubator overnight.
The compounds to be tested were gradiently diluted, each compound was performed 10 concentration gradients (diluted from 50 μM to 0.003 μM) and added 100 nL to the corresponding wells in the microplate. After addition, 40 μl of phosphate buffer was added to each well in rows A and P and columns 1 and 24, and then the microplate was incubated in a carbon dioxide incubator for 5 days.
20 μL of Promega Celltiter-Glo reagent was added to each well of the microplate, and then the luminescence signal was stabilized by oscillating at room temperature for 10 min. Then PekinElmer Envision multi-label analyzer was used to read.
Finally, GraphPad Prism software was used to calculate the IC50 value of the compound and the fitting curve was drawn.
Anti-proliferative activity of the compounds of the present invention against NCI-H358 (KRAS^G12C mutation) cell was shown in Table 1.

| Compound | IC50 (Homo sapiens, NCI-H358, 120 h) [nM] | IC50 [nM] |
| --- | --- | --- |
| C=CC(=O)N1C[C@H](C)N(c2nc(=O)n(-c3c(CC)cccc3S(C)(=O)=O)c3nc(-c4c(O)cccc4F)c(F)cc23)C[C@H]1C [Example 12, 4-((2S,5R)-4-acryloyl-2,5-dimethylpiperazin-1-yl)-1-(2-ethyl-6-(methylsulfonyl)phenyl)-6-fluoro-7-(2-fluoro-6-hydroxyphenyl) pyridino [2,3-d] pyrimidin-2 (1H)-one] | 41 |  |
| C=CC(=O)N1CCN(c2nc(=O)n(-c3c(C4CC4)cccc3S(C)(=O)=O)c3nc(-c4ccccc4F)c(F)cc23)[C@@H](C)C1 [Example 13, (S)-4-(4-acryloyl-2-methylpiperazin-1-yl)-1-(2-cyclopropyl-6-(methylsulfonyl)phenyl)-6-fluoro-7-(2-fluorophenyl) pyridin [2,3-d] pyrimidin-2(1H)-one] | 15 |  |
| C=CC(=O)N1CCN(c2nc(=O)n(-c3c(C4CC4)cccc3S(C)(=O)=O)c3nc(-c4c(F)cccc4F)c(F)cc23)[C@@H](C)C1 [Example 15, (S)-4-(4-acryloyl-2-methylpiperazin-1-yl)-1-(2-cyclopropyl-6-(methylsulfonyl)phenyl)-7-(2,6-difluorophenyl)-6-fluoropyridino [2,3-d] pyrimidin-2(1H)-one] | 58 |  |
| C=CC(=O)N1CCN(c2nc(=O)n(-c3c(C4CC4)cccc3S(C)(=O)=O)c3nc(-c4ccccc4Cl)c(F)cc23)[C@@H](C)C1 [Example 17, (S)-4-(4-acryloyl-2-methylpiperazin-1-yl)-7-(2-chlorophenyl)-1-(2-cyclopropyl-6-(methylsulfonyl)phenyl)-6-fluoropyridino [2,3-d] pyrimidin-2(1H)-one] | 31 |  |
| C=CC(=O)N1CCN(c2nc(=O)n(-c3c(C(C)C)ccnc3S(C)(=O)=O)c3nc(-c4ccccc4Cl)c(F)cc23)[C@@H](C)C1 [Example 20, (S)-4-(4-acryloyl-2-methylpiperazin-1-yl)-7-(2-chlorophenyl)-6-fluoro-1-(4-isopropyl-2-(methylsulfonyl)pyridin-3-yl) pyridino[2,3-d] pyrimidin-2(1H)-one] | 23 |  |
| C=CC(=O)N1CCN(c2nc(=O)n(-c3c(C(C)C)ccnc3S(C)(=O)=O)c3nc(-c4ccc(F)cc4Cl)c(F)cc23)[C@@H](C)C1 [Example 22, (S)-4-(4-acryloyl-2-methylpiperazin-1-yl)-7-(2-chloro-4-fluorophenyl)-6-fluoro-1-(4-isopropyl-2-(methylsulfonyl)pyridin-3-yl) pyridino[2,3-d]pyrimidin-2(1H)-one] | 39 |  |
| C=C(F)C(=O)N1CCN(c2nc(=O)n(-c3c(C(C)C)cccc3S(C)(=O)=O)c3nc(-c4ccccc4Cl)c(F)cc23)[C@@H](C)C1 [Example 23, (S)-7-(2-chlorophenyl)-6-fluoro-4-(4-(2-fluoroacryloyl)-2-methylpiperazin-1-yl)-1-(2-isopropyl-6-(methylsulfonyl)phenyl)pyridino[2,3-d]pyrimidin-2(1H)-one] | 1100 |  |
| C=CC(=O)N1CCN(c2nc(=O)n(-c3c(C(C)C)ccnc3S(C)(=O)=O)c3nc(-c4cccc(F)c4Cl)c(F)cc23)[C@@H](C)C1 [Example 26, (S)-4-(4-acryloyl-2-methylpiperazin-1-yl)-7-(2-chloro-3-fluorophenyl)-6-fluoro-1-(4-isopropyl-2-(methylsulfonyl)pyridin-3-yl) pyridino[2,3-d] pyrimidin-2(1H)-one] | 18 |  |
| C=CC(=O)N1CCN(c2nc(=O)n(-c3c(C(C)C)cccc3S(C)(=O)=O)c3nc(-c4ccccc4Cl)c(F)cc23)[C@@H](C)C1 [Example 30, (S)-4-(4-acryloyl-2-methylpiperazin-1-yl)-7-(2-chlorophenyl)-6-fluoro-1-(2-isopropyl-6-(methylsulfonyl)phenyl) pyridino[2,3-d]pyrimidin-2(1H)-one] |  | 18 |
| C=CC(=O)N1CCN(c2nc(=O)n(-c3ccccc3S(C)(=O)=O)c3nc(-c4c(O)cccc4F)c(F)cc23)CC1CC#N (stereo not shown) [Example 56, 2-(1-acryloyl-4-(6-fluoro-7-(2-fluoro-6-hydroxyphenyl)-1-(2-(methylsulfonyl)phenyl)-2-oxo-1,2-dihydropyridino [2,3-d]pyrimidin-4-yl)piperazin-2-yl) acetonitrile] |  | 8000 |
| C=CC(=O)N1CCN(c2nc(=O)n(-c3c(C)cccc3S(C)(=O)=O)c3nc(-c4c(O)cccc4F)c(F)cc23)CC1CC#N (stereo not shown) [Example 57, 2-(1-acryloyl-4-(6-fluoro-7-(2-fluoro-6-hydroxyphenyl)-1-(2-methyl-6-(methylsulfonyl)phenyl)-2-oxo-1,2-dihydropyridino [2,3-d]pyrimidin-4-yl)piperazin-2-yl) acetonitrile] |  | 10000 |
| C=CC(=O)N1CCN(c2nc(=O)n(-c3cccnc3S(C)(=O)=O)c3nc(-c4c(O)cccc4F)c(F)cc23)CC1CC#N (stereo not shown) [Example 58, 2-(1-acryloyl-4-(6-fluoro-7-(2-fluoro-6-hydroxyphenyl)-1-(2-(methylsulfonyl)pyridin-3-yl)-2-oxo-1,2-dihydropyridino [2,3-d]pyrimidin-4-yl)piperazin-2-yl) acetonitrile] | 10000 |  |

Further lines, results first:

| IC50 (Homo sapiens, NCI-H358, 120 h) [nM] | IC50 [nM] | Compound |
| --- | --- | --- |
| 360 |  | C=CC(=O)N1CCN(c2nc(=O)n(-c3c(C)cccc3S(=O)(=O)N(C)C)c3nc(-c4c(O)cccc4F)c(F)cc23)[C@@H](C)C1 [Example 14] |
| 12 |  | C=CC(=O)N1CCN(c2nc(=O)n(-c3c(C(C)C)ccnc3S(C)(=O)=O)c3nc(-c4c(O)cccc4F)c(F)cc23)[C@@H](C)C1 [Example 16, 4-((S)-4-acryloyl-2-methylpiperazin-1-yl)-6-fluoro-7-(2-fluoro-6-hydroxyphenyl)-1-(4-isopropyl-2-(methylsulfonyl)pyridin-3-yl) pyridino [2,3-d] pyrimidin-2 (1H)-one] |
|  | 30 | C=CC(=O)N1CCN(c2nc(=O)n(-c3c(S(C)(=O)=O)ccnc3C(C)C)c3nc(-c4c(O)cccc4F)c(F)cc23)[C@@H](C)C1 [Example 18, 4-((S)-4-acryloyl-2-methylpiperazin-1-yl)-6-fluoro-7-(2-fluoro-6-hydroxyphenyl)-1-(2-isopropyl-4-(methylsulfonyl)pyridin-3-yl)pyridino[2,3-d]pyrimidin-2 (1H)-one] |
| 48 |  | C=CC(=O)N1CCN(c2nc(=O)n(-c3c(C(C)C)ccnc3S(C)(=O)=O)c3nc(-c4c(F)cccc4OC)c(F)cc23)[C@@H](C)C1 [Example 19, 4-((S)-4-acryloyl-2-methylpiperazin-1-yl)-6-fluoro-7-(2-fluoro-6-methoxyphenyl)-1-(4-isopropyl-2-(methylsulfonyl)pyridin-3-yl) pyridino[2,3-d]pyrimidin-2(1H)-one] |
| 1200 |  | C=C(F)C(=O)N1CCN(c2nc(=O)n(-c3c(C(C)C)cccc3S(C)(=O)=O)c3nc(-c4c(O)cccc4F)c(F)cc23)[C@@H](C)C1 [Example 21] |
|  | 28 | C=CC(=O)N1CCN(c2nc(=O)n(-c3c(C(C)C)ccnc3S(C)(=O)=O)c3nc(-c4c(F)cccc4OC(C)=O)c(F)cc23)[C@@H](C)C1 [Example 24] |
|  | 9 | C=CC(=O)N1CCN(c2nc(=O)n(-c3c(C4CCC4)cccc3S(C)(=O)=O)c3nc(-c4c(O)cccc4F)c(F)cc23)[C@@H](C)C1 [Example 25, 4-((S)-4-acryloyl-2-methylpiperazin-1-yl)-1-(2-cyclobutyl-6-(methylsulfonyl)phenyl)-6-fluoro-7-(2-fluoro-6-hydroxyphenyl) pyridino[2,3-d]pyrimidin-2(1H)-one] |
| 30 |  | C=CC(=O)N1CCN(c2nc(=O)n(-c3c(C(C)C)ccnc3S(C)(=O)=O)c3nc(-c4c(O)cccc4Cl)c(F)cc23)[C@@H](C)C1 [Example 27, 4-((S)-4-acryloyl-2-methylpiperazin-1-yl)-7-(2-chloro-6-hydroxyphenyl)-6-fluoro-1-(4-isopropyl-2-(methylsulfonyl)pyridin-3-yl) pyridino[2,3-d] pyrimidin-2(1H)-one] |
| 26 |  | C=CC(=O)N1CCN(c2nc(=O)n(-c3c(C(C)C)ccnc3S(C)(=O)=O)c3nc(-c4c(F)cccc4Cl)c(F)cc23)[C@@H](C)C1 [Example 28, 4-((S)-4-acryloyl-2-methylpiperazin-1-yl)-7-(2-chloro-6-fluorophenyl)-6-fluoro-1-(4-isopropyl-2-(methylsulfonyl)pyridin-3-yl) pyridino[2,3-d] pyrimidin-2(1H)-one] |
| 53 |  | C=CC(=O)N1CCN(c2nc(=O)n(-c3c(C(C)C)cncc3S(C)(=O)=O)c3nc(-c4c(O)cccc4F)c(F)cc23)[C@@H](C)C1 [Example 29] |
|  | 8 | C=CC(=O)N1CCN(c2nc(=O)n(-c3c(C(C)C)cccc3S(C)(=O)=O)c3nc(-c4c(F)cccc4OC(C)=O)c(F)cc23)[C@@H](C)C1 [Example 31, 2-(4-((S))-4-acryloyl-2-methylpiperazin-1-yl)-6-fluoro-1-(2-isopropyl-6-(methylsulfonyl)phenyl)-2-oxo-1,2-dihydropyridino[2,3-d]pyrimidin-7-yl)-3-fluorophenyl acetate] |
|  | 2500 | C=CC(=O)N1CCN(c2nc(=O)n(-c3cccnc3S(C)(=O)=O)c3nc(-c4c(O)cccc4F)c(F)cc23)[C@@H](C)C1 [Example 54, 4-((S)-4-acryloyl-2-methylpiperazin-1-yl)-6-fluoro-7-(2-fluoro-6-hydroxyphenyl)-1-(2-(methylsulfonyl)pyridin-3-yl) pyridino [2,3-d] pyrimidin-2(1H)-one] |
| 5300 |  | C=CC(=O)N1CCN(c2nc(=O)n(-c3cnccc3S(C)(=O)=O)c3nc(-c4c(O)cccc4F)c(F)cc23)[C@@H](C)C1 [Example 55] |
